Source: article PMC9499324, “Glycyrrhizic Acid Derivatives Bearing Amino Acid Residues in the Carbohydrate Part as Dengue Virus E Protein Inhibitors: Synthesis and Antiviral Activity” (International Journal of Molecular Sciences, 2022)

Tests used:
DENV2 [1] = assay: DENV2-induced cytopathic effect (CPE) reduction screening in Vero E6 cells; format: cell-based, Dengue virus type 2; conditions: for inhibition at 10 µM: Dengue virus
Procedure: (§1) In the antiviral screening assay, each tested GL conjugate at 10 μM was used to survey the anti-DENV activity in Vero E6 cells using cytopathic effect (CPE) and infectivity reduction assays as described in our prior report. In CPE and infectivity reduction assays, Vero E6 cells were infected by DENV2 at an MOI of 0.005 and simultaneously treated 10 μM of indicated GL conjugate for 96 h, and then photographed by microscope for examining the levels of DENV2-induced CPE in infected cells treated with or without GL conjugate. Meanwhile, the cells were further performed using immunofluorescence assay (IFA) with anti-DENV NS4B antibodies (GeneTex, Inc., Hsinchu, Taiwan) and anti-rabbit IgG antibodies conjugated with AF555 (ThermoFisher, Waltham, MA, USA) plus DAPI (4′,6-diamidino-2-phenylindole) nuclear staining. Finally, the DENV-2 infectivity was measured according to the ratio of DENV NS4B-positive cells to DAPI-stained cells in the well of mock-treated or treated cells, as described in [45, 59, 60].

DENV2 [2] = assay: DENV2 infectivity inhibition (anti-NS4B immunofluorescence) in Vero E6 cells; format: cell-based, Dengue virus type 2; conditions: for inhibition at 10 µM: Vero C1008, 10 μM compound, DENV2, Vero E6 cells, 96 h, read-out: Inhibition (%) at 10 μM (reduction of NS4B-positive cells); for Selectivity Index (CC50/ IC50): DENV2
Excerpt: as §1, with “In the antiviral screening assay, each tested GL conjugate at 10 μM was used to survey the anti-DENV activity in Vero E6 cells using cytopathic effect (CPE) and infectivity reduction assays as described in our prior report.” left out, “[…],” for “Vero E6 cells were infected by DENV2 at an MOI of 0.005 and simultaneously treated 10 μM of indicated GL conjugate for 96 h,”

[3] = MTT cytotoxicity assay in Vero E6 cells; format: cell-based; conditions: African green monkey
Procedure: (§2) Vero E6 cells and A549 cells (5 × 10^3 cells/well) were treated with the serial dilution of GL conjugates at 0, 0.1, 10, 20, and 50 μM for examining the in vitro cytotoxicity of tested compounds. After 96-h incubation at 37 °C, the cells were incubated with MTT (3-(4,5-Dimethylthiazol-2-yl)-2,5-Diphenyltetrazolium Bromide) solution for another 4 h incubation, mixed with DMSO for 15 min after the removal of media, and then measured the absorbance at 570 nm. The viability (%) of treated cells was quantified according to the reduced ability of MTT. Finally, the concentration for reducing 50% cell viability (the 50% cytotoxic concentration, CC50) was determined by regression analysis of the concentration–response survival curve.

[4] = set-up: method as in earlier work; conditions: mammals; cited from earlier work
[5] = MTT cytotoxicity assay in A549 cells; format: cell-based; conditions: human
Procedure: as §2

DENV2 [6] = assay: DENV2 infectivity inhibition (anti-NS4B immunofluorescence) in A549 cells; format: cell-based, Dengue virus type 2
DENV1 = DENV1 infectivity inhibition assay in Vero E6 cells; format: cell-based; conditions: Dengue virus, DENV1, Vero C1008, read-out: IC50 in the DENV1 infectivity inhibition assay
Procedure: as §1
Supplemental Figure S25. Infectivity inhbition of DENV1 in Vero E6 cells by active GL conjugates. Cells were infected with DENV1 in the presence and absence of Compounds 3, 6, 11, and 21 at the concentrations of 0.1, 1, and 10 μM, respectively. Treated/infected Vero E6 cells were also analyzed using immunofluorescence staining with anti-DENV2 NS4B antibodies.
Residual infectivity was discovered by the ratio of DENV2 NS4B positive cells to total cells stained with DAPI, and relative inhibition activity was determined based on full infectivity with the subtraction of its residual infectivity.
(1 picture or pasted object on this page, not shown here)

DENV2 [7] = assay: Time-of-addition/compound removal assay with DENV2 in Vero E6 cells; format: cell-based, Dengue virus type 2; conditions: time-of-addition/removal, Vero E6 cells
Procedure: Figure 5 Time-of-addition and removal assay for analyzing antiviral action of compounds 3 (A), 6 (B), 11 (C), and 21 (D) in Vero E6 cells. In the attachment mode, cells were pre-cooled and incubated with fresh-prepared mixtures of active compounds with DENV2 at 4 °C for 1 h. After the removal of the mixtures, the cells were kept at 37 °C for 96 h (a cycle of viral replication) and then were performed by immunofluorescent assay plus DAPI staining. In entry and post-entry modes, cells were infected with DENV2 and treated with the compounds simultaneously (the entry stage) or 1-h post-infection (post-entry stage). After a 1 h incubation period, the virus/compound mixture was removed; the cell monolayer was washed with PBS and cultured for 96 h and then subjected to immunofluorescence staining and DAPI. Finally, the inhibition percentage of DENV2 infectivity was calculated as follows: 1-(percentage of NS4B positivity in treated cells/percentage of NS4B positivity in mock-treated cells). *** p < 0.001 compared with the other two antiviral action modes.
The time-of-addition assays consisted of three modes including attachment treatment/removal, entry-treatment/removal, and post-entry treatment/removal modes. In the attachment-treatment/removal mode, Vero E6 cells monolayer in 6-well plate was placed at 4 °C for 2 h and incubated with the fresh-prepared mixture of DENV-2 (MOI = 0.005) with the active compound at indicated concentrations for 2 h at 4 °C, and then washed with phosphate-buffered saline (PBS). In the entry-treatment/removal mode, Vero E6 cells were simultaneously treated with the active compound and infected DENV-2 (MOI = 0.005) in 6-well plates, incubated for 1 h at 37 °C, and then washed with PBS. In the post-entry treatment/removal mode, the cells were infected with DENV-2 for 1 h at 37 °C, treated with the active compounds at indicated concentrations for 1 h at 37 °C, respectively, and then washed by PBS. After active compound removal (washout), the cells were incubated at 37 °C for 96 h, and then were analyzed by immunofluorescent and DAPI staining assay for determining the residual DENV-2 infectivity, as described above. The inhibitory activity of the transient treatment by active compounds on attachment, entry, and post-entry stages of DENV replication in vitro was determined based on the residual infectivity.

DENV1 and DENV2 = assay: DENV infectivity inhibition, summary over DENV1 and DENV2 in Vero E6 and A549 cells; format: cell-based, Dengue virus; conditions: Dengue virus, range over DENV1 and DENV2, Vero E6 and A549 cells; read-out: IC50 in DENV infectivity (range over assays)
Excerpt: as §1, with “In the antiviral screening assay, each tested GL conjugate at 10 μM was used to survey the anti-DENV activity in Vero E6 cells using cytopathic effect (CPE) and infectivity reduction assays as described in our prior report.” left out, “[…],” for “Vero E6 cells were infected by DENV2 at an MOI of 0.005 and simultaneously treated 10 μM of indicated GL conjugate for 96 h,”

[8] = Vero C1008, 10 μM compound, DENV2, Vero E6 cells, 96 h, read-out: CPE Reduction at 10 μM
[9] = 10 μM compound, DENV2, Vero E6 cells, 96 h

## CC1(C)[C@@H](O[C@H]2O[C@H](C(=O)O)[C@@H](O)[C@H](O)[C@H]2O[C@@H]2O[C@H](C(=O)O)[C@@H](O)[C@H](O)[C@H]2O)CC[C@]2(C)[C@H]3C(=O)C=C4[C@@H]5C[C@@](C)(C(=O)O)CC[C@]5(C)CC[C@@]4(C)[C@]3(C)CC[C@@H]12 [Compound 1, Glycyrrhizic acid]
DENV2 [1]; [8]
  inhibition at 10 µM: 50 to 75%
DENV2 [2]; Dengue virus, DENV2, Vero C1008, Vero E6 cells, read-out: Inhibition of DENV2 Infectivity (IC50)
  IC50: 8.1 ± 0.21 µM
DENV2 [2]; Dengue virus
  inhibition at 10 µM: 70.5%
DENV2 [2]; Vero E6 cells
  Selectivity Index (CC50/ IC50): >12.3
[3]
  CC50 at 96 h: > 100 µM
[4]
  LD50: 5000 mg/kg

## COC(=O)[C@@H](NC(=O)[C@H]1O[C@@H](O[C@H]2[C@H](OC3CC[C@@]4(C)C(CC[C@]5(C)C4C(=O)C=C4C6C[C@@](C)(C(=O)O)CC[C@]6(C)CC[C@]45C)C3(C)C)O[C@H](C(=O)N[C@H](C(=O)OC)C(C)C)[C@@H](O)[C@@H]2O)[C@H](O)[C@@H](O)[C@@H]1O)C(C)C (stereo partly drawn) [Compound 2, 3-O-{2-O-[N-(β-D-Glucopyranosyluronoyl)-L-valinemethyl ester]-N-(β-D-glucopyranosyluronoyl)-L-valinemethyl ester}-(3β, 20β)-11-oxo-30-norolean-12-ene-30-oic Acid]
DENV2 [1]; [9]
  CPE Reduction at 10 μM: −

## CC[C@H](C)[C@H](NC(=O)[C@H]1O[C@@H](O[C@H]2[C@H](OC3CC[C@@]4(C)C(CC[C@]5(C)C4C(=O)C=C4C6C[C@@](C)(C(=O)O)CC[C@]6(C)CC[C@]45C)C3(C)C)O[C@H](C(=O)N[C@H](C(=O)OC)[C@@H](C)CC)[C@@H](O)[C@@H]2O)[C@H](O)[C@@H](O)[C@@H]1O)C(=O)OC (stereo partly drawn) [Compound 4, 3-O-{2-O-[N-(β-D-Glucopyranosyluronoyl)-L-isoleucinemethyl ester]-N-(β-D-glucopyranosyluronoyl)-L-isoleucinemethyl ester}-(3β, 20β)-11-oxo-30-norolean-12-ene-30-oic Acid]
DENV2 [1]; [9]
  CPE Reduction at 10 μM: −

## COC(=O)[C@H](Cc1ccc(O)cc1)NC(=O)[C@H]1O[C@@H](O[C@H]2[C@H](OC3CC[C@@]4(C)C(CC[C@]5(C)C4C(=O)C=C4C6C[C@@](C)(C(=O)O)CC[C@]6(C)CC[C@]45C)C3(C)C)O[C@H](C(=O)N[C@@H](Cc3ccc(O)cc3)C(=O)OC)[C@@H](O)[C@@H]2O)[C@H](O)[C@@H](O)[C@@H]1O (stereo partly drawn) [Compound 6, 3-O-{2-O-[N-(β-D-glucopyranosyluronoyl)-L-tyrosinemethyl ester]-N-(β-D-glucopyranosyluronoyl)-L-tyrosinemethyl ester}-(3β,20β)-11-oxo-30-noroleane-12-ene-30-oic acid]
DENV2 [1]; [8]
  inhibition at 10 µM: 75 to 100%
DENV2 [2]; Dengue virus, DENV2, Vero C1008, read-out: Inhibition of DENV2 Infectivity (IC50, μM), Vero E6 cells
  IC50: 6 µM
DENV2 [2]; Dengue virus
  inhibition at 10 µM: 94%
DENV2 [2]; Vero E6 cells
  Selectivity Index (CC50/ IC50): >16.7
DENV2 [2]; Vero E6 cells, read-out: Inhibition of DENV2 Infectivity (IC50)
  IC50: 5.98 ± 0.41 µM
[3]
  CC50 at 96 h: > 100 µM
[5]
  CC50 at 96 h: > 100 µM
DENV2 [6]
  Selectivity Index (CC50/ IC50): >1000
DENV2 [6]; Dengue virus
  IC50: < 0.1 µM
DENV1
  IC50: < 0.1 µM
DENV2 [7]
  Stage of DENV2 replication affected (attachment, entry, post-entry modes): predominantly impeded the post-entry stage
DENV1 and DENV2
  IC50: 0.1 to 5.98 µM

## COC(=O)[C@@H](Cc1ccc(O)cc1)NC(=O)[C@H]1O[C@@H](O[C@H]2[C@H](OC3CC[C@@]4(C)C(CC[C@]5(C)C4C(=O)C=C4C6C[C@@](C)(C(=O)O)CC[C@]6(C)CC[C@]45C)C3(C)C)O[C@H](C(=O)N[C@H](Cc3ccc(O)cc3)C(=O)OC)[C@@H](O)[C@@H]2O)[C@H](O)[C@@H](O)[C@@H]1O (stereo partly drawn) [Compound 7, 3-O-{2-O-[N-(β-D-Glucopyranosyluronoyl)-D-tyrosinemethyl ester]-N-(β-D-glucopyranosyluronoyl)-D-tyrosinemethyl ester}-(3β, 20β)-11-oxo-30-noroleane-12-ene-30-oic Acid]
DENV2 [1]; DENV2, Vero C1008, read-out: CPE inhibition
  inhibition at 10 µM: 25 to 50%
DENV2 [1]; [8]
  inhibition at 10 µM: 25 to 50%
DENV2 [2]; Dengue virus
  inhibition at 10 µM: 51.7%

## COC(=O)[C@H](CCSC)NC(=O)[C@H]1O[C@@H](O[C@H]2[C@H](OC3CC[C@@]4(C)C(CC[C@]5(C)C4C(=O)C=C4C6C[C@@](C)(C(=O)O)CC[C@]6(C)CC[C@]45C)C3(C)C)O[C@H](C(=O)N[C@@H](CCSC)C(=O)OC)[C@@H](O)[C@@H]2O)[C@H](O)[C@@H](O)[C@@H]1O (stereo partly drawn) [Compound 8, 3-O-{2-O-[N-(β-D-Glucopyranosyluronoyl)-L-methioninemethyl ester]-N-(β-D-glucopyranosyluronoyl)-L-methioninemethyl ester}-(3β, 20β)-11-oxo-30-noroleane-12-ene-30-oic Acid]
DENV2 [1]; [8]
  inhibition at 10 µM: 25 to 50%
DENV2 [2]; Dengue virus
  inhibition at 10 µM: 51.6%

## CCOC(=O)CCNC(=O)[C@H]1O[C@@H](O[C@H]2[C@H](OC3CC[C@@]4(C)C(CC[C@]5(C)C4C(=O)C=C4C6C[C@@](C)(C(=O)O)CC[C@]6(C)CC[C@]45C)C3(C)C)O[C@H](C(=O)NCCC(=O)OCC)[C@@H](O)[C@@H]2O)[C@H](O)[C@@H](O)[C@@H]1O (stereo partly drawn) [Compound 15, 3-O-{2-O-[N-(β-D-Glucopyranosyluronoyl)-β-alanineethyl ester]-N-(β-D-glucopyranosyluronoyl)-β-alanineethyl ester}-(3β, 20β)-11-oxo-30-noroleane-12-ene-30-acid]
DENV2 [1]; [8]
  inhibition at 10 µM: 25 to 50%
DENV2 [2]; Dengue virus
  inhibition at 10 µM: 53.6%

## CCOC(=O)[C@@H](Cc1ccccc1)NC(=O)CNC(=O)[C@H]1O[C@@H](O[C@H]2[C@H](OC3CC[C@@]4(C)C(CC[C@]5(C)C4C(=O)C=C4C6C[C@@](C)(C(=O)O)CC[C@]6(C)CC[C@]45C)C3(C)C)O[C@H](C(=O)NCC(=O)N[C@H](Cc3ccccc3)C(=O)OCC)[C@@H](O)[C@@H]2O)[C@H](O)[C@@H](O)[C@@H]1O (stereo partly drawn) [Compound 16, 3-O-{2-O-[N-(β-D-Glucopyranosyluronoyl)-glycyl-L-phenylalanineethyl ester]-N-(β-D-glucopyranosyluronoyl)-glycyl-L-phenylalanineethyl ester}-(3β,20β)-11-oxo-30-noroleane-12-ene-30-acid]
DENV2 [1]; [8]
  inhibition at 10 µM: 50 to 75%
DENV2 [2]; Dengue virus
  inhibition at 10 µM: 63.8%
